This is an account of results in paper PMC10386454 (Pharmaceutics, 2023).

Experiment [1] deals with HEK293 empty vector transfected cells (mock). Description: Forskolin-stimulated cAMP production in mock-transfected HEK293 cells. The class given is cell-based, human. The settings on record: extracts […] (Ex18 0.005 mg/mL), melatonin 1 µM. (Changes in cAMP serve as a functional read-out for many G protein-coupled receptors.)
Experiment [2] shares this test system. Description: ERK1/2 activation assay in mock HEK293 cells. The experiment is classed as cell-based, human. The settings on record: MLT 1 µM.
Experiment [3] shares this test system. The experiment is described as follows: β-arrestin2 recruitment assay (PathHunter), control cells with β-gal donor not fused to melatonin receptors. The experiment is classed as cell-based, human. The settings on record: extracts […], Ex18 0.005 mg/mL, MLT 1 µM. (Arrestin recruitment assays detect the binding of arrestin to an activated receptor.)
Experiment [4] deals with T1, human MT1 (Homo sapiens, UniProt P48039). The experiment is described as follows: Inhibition of forskolin-stimulated cAMP production, HEK293 cells expressing MT1. The experiment is classed as cell-based. Also on record: expressed in transfected cells. The settings on record: single concentration: extracts […] (Ex18 0.005 mg/mL), melatonin 1 µM; normalized to mock cell responses.
Target sequence in this assay (P48039 whole entry): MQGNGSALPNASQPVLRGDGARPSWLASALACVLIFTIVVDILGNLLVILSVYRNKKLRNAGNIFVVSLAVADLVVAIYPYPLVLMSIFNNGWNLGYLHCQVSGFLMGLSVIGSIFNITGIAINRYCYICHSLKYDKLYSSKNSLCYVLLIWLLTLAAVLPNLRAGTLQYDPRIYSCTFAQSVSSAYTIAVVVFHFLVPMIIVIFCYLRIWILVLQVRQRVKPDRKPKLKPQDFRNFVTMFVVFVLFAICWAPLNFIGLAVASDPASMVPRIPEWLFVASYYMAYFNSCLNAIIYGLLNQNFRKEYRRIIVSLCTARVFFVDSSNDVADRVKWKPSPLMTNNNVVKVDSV

For experiment [5], the target named is T1, human MT1. Description: β-arrestin2 recruitment assay (PathHunter), MT1. To be noted: single saturating concentration. The class given is cell-based. Also on record: host or cells: HEK 293 PathHunter parental cells, transient transfection of the receptor.
Target sequence in this assay (P48039 whole entry): as above
Target sequence in this assay (P32121 whole entry partner): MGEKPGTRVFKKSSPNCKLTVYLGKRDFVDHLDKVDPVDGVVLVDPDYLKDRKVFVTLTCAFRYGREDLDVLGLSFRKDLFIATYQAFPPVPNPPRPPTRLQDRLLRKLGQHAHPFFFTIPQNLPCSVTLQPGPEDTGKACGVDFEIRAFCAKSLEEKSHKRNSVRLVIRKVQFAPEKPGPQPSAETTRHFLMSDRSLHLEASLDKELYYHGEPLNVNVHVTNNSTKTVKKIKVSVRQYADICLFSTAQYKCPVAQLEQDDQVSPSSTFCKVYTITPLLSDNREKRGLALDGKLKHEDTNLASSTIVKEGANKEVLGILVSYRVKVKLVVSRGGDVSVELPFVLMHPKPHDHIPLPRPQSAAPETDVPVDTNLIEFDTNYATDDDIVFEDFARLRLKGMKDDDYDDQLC
The target in the next experiment is T2, human MT2 receptor (Homo sapiens, UniProt P49286).
T2 construct: expressed in transfected cells
T2 sequence (P49286 1-362): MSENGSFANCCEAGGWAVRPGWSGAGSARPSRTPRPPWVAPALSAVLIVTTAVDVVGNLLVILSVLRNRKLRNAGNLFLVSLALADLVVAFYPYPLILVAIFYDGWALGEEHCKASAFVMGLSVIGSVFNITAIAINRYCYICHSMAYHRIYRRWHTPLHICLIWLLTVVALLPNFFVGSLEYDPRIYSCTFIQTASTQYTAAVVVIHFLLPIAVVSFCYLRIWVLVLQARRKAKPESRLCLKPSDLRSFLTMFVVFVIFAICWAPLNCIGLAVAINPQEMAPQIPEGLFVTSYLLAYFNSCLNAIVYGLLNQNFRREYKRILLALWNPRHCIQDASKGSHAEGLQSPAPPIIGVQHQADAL
Description: 2-[125I]iodomelatonin competitive binding assay, MT2.

In experiment [6] the target is T1, human MT1. The experiment is described as follows: 2-[125I]iodomelatonin competitive binding assay, MT1. Also on record: expressed in transfected cells.
Target sequence in this assay (P48039 whole entry): as the sequence (P48039 whole entry) above

For the compound `COc1ccc2[nH]cc(CCNC(C)=O)c2c1` [Melatonin, N-acety-5-methoxyltryptamine], in experiment [1], the “effect on forskolin (FSK)-stimulated cAMP levels in mock cells” value is reported as “did not show any effect”. Besides, in experiment [2], the “effect on ERK1/2 pathway in mock cells, in words” value is “without effect”. In experiment [3], the “β-arrestin2 recruitment in control cells (β-gal donor alone)” value was “Neither melatonin nor any extract induced β-arrestin2 recruitment”. Further, on human MT1 [4], the “effect on FSK-stimulated cAMP production, cells expressing MT1” value is “decreased FSK-stimulated cAMP production”. The “β-arrestin2 recruitment, MT1-β-gal donor fusion protein” value at human MT1 [5] is given as “induced β-arrestin2 recruitment”.

For the compound maltodextrin, the “2-[125I]-MLT binding to MT2, result in words” value on human MT2 receptor is reported as “no impact”. Besides, at human MT1 [6], the “2-[125I]-MLT binding to MT1, result in words” value was “no impact”.
